Results: US11364258B2, “Methods for treating chondrosarcoma using microrna(miR)” (Rhode Island Hospital, priority 2016, dated 2022)

Experiments:
VEGF [1] = assay: ELISA of VEGF expression in chondrosarcoma cells after transfection; assay type: cell-based, human
Description: (§1) Cell lines: Human primary chondrocytes and chondrosarcoma cell lines were cultured as previously described (Kulshreshtha et al., Cell Cycle. 2007; 6:1426-1431). CS-1 (a gift from Dr. Francis Hornicek, Harvard Medical School, Boston, Mass.) was cultured in Gibco RPMI 1640 Medium (Life Technologies, Grand Island, N.Y.), with 10% FBS in a humidified incubator (NuAire Inc, Plymouth, Minn.) under 5% CO2 and either normoxia (ambient oxygen) or hypoxia (2% O2)(11). CS-1 was derived from human grade III chondrosarcoma and metastasizes in a xenograft mouse model(Susa M, Morii T, Yabe H, Horiuchi K, Toyama Y, Weissbach L, et al. Alendronate inhibits growth of high-grade chondrosarcoma cells. Anticancer Res. 2009 June; 29(6):1879-88.). All cells were cultured in a humidified incubator (NuAire Inc, Plymouth, Minn., USA) under 5% CO2 and either normoxia or hypoxia (2% O2) (Lin et al., J Orthop Res. 2004; 22:1175-1181).
Transfections were performed with GenMute transfection reagent (SignaGen Laboratories, Gaithersburg, Md.). pmiRZIP lentivector expressing anti-miR-181a or control sequence (SBI, Mountain View, Calif.) was used for permanent miR-181a knockdown experiments. Transduction-ready FIV-based pseudoviral particles were generated using pPACK-H1 Lentivector Packaging System together with 293TN cell line (SBI), at a titer of 1.06×10^9 IFU/ml. Control was Lenti-scramble Hairpin control pseudoviral particles at a titer of 1×10^9 IFU/ml. Cells were cultured in 12-well plates at a density of 1×10^5/well for 1 day, infected by pseudoviral particles (using a multiplicity of infection of 100 viruses per cell) and cultured for 72 hrs, then selected for puromycin (5 μg/ml) resistance for stable cell lines. Stably transduced cells were used for vitro and in vivo experiments.
ELISA: Conditioned medium was obtained 72 hours after transfection. Soluble VEGF-165 and MMP1 were detected using VEGF and MMP1 Immunoassay kits (R&D Systems, Minneapolis, Minn.) according to manufacturer's instructions. VEGF-165 and MMP1 levels were measured two times for each condition and with normalization to the number of cells at the end of the culture period. Each experiment was repeated three times. Twenty mg of xenograft tumor tissue in RIPA buffer containing proteinase inhibitors (Roche) was homogenized on ice using TissueRuptor (Qiagen). Tissue lysates were centrifuge at 14000 rpm for 30 min, supernatant saved at −80° C. for later use. VEGF-165 levels in xenograft tumor lysates were normalized to total protein.

chondrosarcoma cells = assay: CyQUANT cell proliferation assay; assay type: cell-based, human
Description: as §1
Cell proliferation assay: CyQUANT® Cell Proliferation Assay Kit according to manufacturer's protocol

[2] = system: placental growth factor (PLGF); assay: Angiogenesis antibody array in chondrosarcoma cells (PLGF); assay type: cell-based, human; conditions: vs miR control; FIG. 3
Description: (§2) Angiogenesis antibody array: Human Angiogenesis Array Kit is a membrane-based sandwich immunoassay. Samples are mixed with a cocktail of biotinylated detection antibodies and then incubated with the array membrane which is spotted in duplicate with capture antibodies to specific target proteins. Captured proteins are visualized using chemiluminescent detection reagents. The signal produced is proportional to the amount of bound analyte. It is sensitive and economical tool to simultaneously detect the relative levels of 55 angiogenesis-related proteins in a single sample.

thrombospondin-1 (TSP-1) = assay: Angiogenesis antibody array in chondrosarcoma cells (TSP-1); assay type: cell-based, human; conditions: vs miR control; FIG. 3
Description: as §2

Met = assay: Western blot of Met protein in chondrosarcoma cells; assay type: cell-based, human; conditions: vs miRNA control; FIG. 5
Text: Western blot: Cell or tumor lysates containing forty μg of protein were separated via SDS-PAGE (Bio-Rad, Hercules, Calif.) and probed with antibodies for VEGF (VEGFA), MMP-1, SSX, and actin (Santa Cruz Biotechnology, Santa Cruz, Calif.). The fluorescent signals were detected using a fluorescently-labeled secondary goat anti-rabbit antibody (Alexa Fluor 680) (Molecular Probes, Eugene, Oreg.) and analyzed on Licor Odyssey Scanner (LI-COR Biosciences, Lincoln, Nebr.). Western Blot analyses were performed as previously described with specific antibodies (IMGNEX, San Diego, Calif.) and actin antibody (Santa Cruz Biotechnology, Santa Cruz, Calif.). Protein concentrations were determined using the Quick Start Bradford protein assay (Bio-Rad).

VEGF [3] = assay: Angiogenesis antibody array in chondrosarcoma cells (VEGF); assay type: cell-based, human; conditions: vs miR control; FIG. 3
Description: as §2

metastasis = conditions: literature (Sun et al. 2013; Smith et al. 2004); cited from earlier work
SSX1 = assay: qRT-PCR of SSX1 mRNA in chondrosarcoma cells; assay type: cell-based, human; conditions: 20 nM; vs control cells or anti-miR-34a; FIG. 10A
Description: qRT-PCR: miR expression evaluated with qRT-PCR using Hs_miR-181a primer 5′-AACAUUCAACGCUGU-CGGUGAGU-3′ (SEQ ID NO:198) and 1280: 5′UCCCACCGCUGCCACCC-3′ (SEQ ID NO:199) (Qiagen). The comparative threshold cycle (Ct) method, i.e., 2-ΔΔCt method is used to calculate fold amplification. For quantification of mRNA, total RNA was isolated from chondrocytes, CS-1 cells, and xenograft mouse tumors using the RNAqueous® Kit (Ambion, Austin, Tex., USA). SYBR real-time PCR was carried out using two-step real-time qRT-PCR (Qiagen) with normalization to 18S rRNA (18S). The comparative threshold cycle (Ct) method, i.e., the 2-ΔΔCt method, was used for the calculation of fold amplification. Each experiment was evaluated with three PCR reactions and each experiment was repeated three times, the sample size necessary to maintain power at 0.80 to detect a 50% decrease with an alpha of 0.025 (one-tailed t-test).
ELISA, western blot, qRT-PCR, and cell proliferation assays were performed as described above.

For “miR-126: miScript miRNA mimic of miR-126; mature sequence SEQ ID NO: 188 CAUUAUUACUUUUGGUACGCG (listed as RNA, chemistry not given here)”, the “VEGF expression after transient transfection (ELISA)” value (VEGF [1]; 20 nM miR-126, 80 nM anti-miR-126, normoxic and hypoxic conditions, FIG. 2 bottom) was “reduced VEGF expression”, the “VEGF expression (ELISA)” value (VEGF [1]; 10-80 nM of miR-126, normoxia and hypoxia (2% oxygen), FIG. 2 top) was “inhibited VEGF expression in a dose-dependent manner” and the “chondrosarcoma cell growth over time” value (chondrosarcoma cells; 20 nM miR-126 vs control miR, FIG. 6) was “grew more slowly over time”. For the same molecule, the “PLGF expression (angiogenesis antibody array)” value [2] was “reduces the expression”, the “TSP-1 expression (angiogenesis antibody array)” value (thrombospondin-1 (TSP-1)) was “reduces the expression” and the “Met protein expression (western blot)” value (Met) was “expression of Met protein decreased”. For the same molecule, the “VEGF expression (angiogenesis antibody array)” value (VEGF [3]) was “reduces the expression”.
In the case of `c1cc(CN2CCCNCCNCCCNCC2)ccc1CN1CCCNCCNCCCNCC1` [AMD3100, plerixafor], the metastasis in mice (metastasis) is given as “reduce metastasis”.
In the case of “miR-34a: miR-34a mimic, the same sequence as miR-34a (guide AACAUUCAACGCUGUCGGUGAGU; synthetic mimic, further chemistry not given here)”, the “VEGF protein expression (ELISA, western blot)” value (VEGF [1]; 20 nM, vs control miR, control anti-miR or anti-miR-34a, FIG. 7A-7C, p<0.02, n=3) is reported as “significantly decreased expression of VEGF protein”, the “VEGF expression over time (ELISA)” value (VEGF [1]; secreted VEGF, vs control miR, FIG. 8, p<0.001) is reported as “decreased VEGF expression over time” and the “chondrosarcoma cell growth rates over time” value (chondrosarcoma cells; miR-34a vs control miR, FIG. 9, p<0.001) is reported as “significantly decreased growth rates over time”. The “SSX1 mRNA expression (qRT-PCR)” value (SSX1) was “decreased SSX1 mRNA expression”.
